Literature values in patent US20050222211A1, “S(-)rabeprazole compositions and methods” (Sepracor Inc., priority 1998, published 2005).

Columns and labels:
[1] = humans; depending on dose
gastric acid secretion = settings: humans
CYP 3A = settings: compared with omeprazole
CYP 2C19 = CYP 2C19 (Homo sapiens, UniProt P33261); settings: compared with omeprazole
CYP 1A1 mRNA = settings: compared with pantoprazole

CYP 2C19, sequence (P33261 whole entry, species assumed): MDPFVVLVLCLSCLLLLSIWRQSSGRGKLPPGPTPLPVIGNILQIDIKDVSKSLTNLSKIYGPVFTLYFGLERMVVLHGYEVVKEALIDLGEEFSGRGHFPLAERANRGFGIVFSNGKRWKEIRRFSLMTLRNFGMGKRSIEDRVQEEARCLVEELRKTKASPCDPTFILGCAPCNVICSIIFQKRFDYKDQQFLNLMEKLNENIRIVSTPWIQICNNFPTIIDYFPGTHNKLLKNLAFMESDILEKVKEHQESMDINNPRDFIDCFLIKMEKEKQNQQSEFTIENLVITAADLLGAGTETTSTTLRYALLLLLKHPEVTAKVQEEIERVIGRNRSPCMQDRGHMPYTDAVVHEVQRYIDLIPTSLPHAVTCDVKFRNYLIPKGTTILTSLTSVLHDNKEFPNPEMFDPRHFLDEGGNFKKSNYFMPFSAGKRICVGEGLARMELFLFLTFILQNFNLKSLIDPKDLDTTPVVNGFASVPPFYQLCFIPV

For `COCCCOc1ccnc(C[S+]([O-])c2nc3ccccc3[nH]2)c1C` (racemic) [racemic rabeprazole], the serum half-life [1] is listed as 0.833 to 1.5 h, the “duration of the acid inhibitory effect” value (gastric acid secretion) is listed as “about 24 hours” and the “effects on hepatic drug metabolizing enzyme systems such as CYP 3A” value (CYP 3A) is listed as “comparable to omeprazole”. For the same compound, the “inhibition of CYP 2C19” value (CYP 2C19) was “less inhibitory of CYP 2C19 than is omeprazole” and the “induction of CYP 1A1 mRNA” value (CYP 1A1 mRNA) was “more potent inducer of CYP 1A1 mRNA than is pantoprazole”.
